Results reported in publication PMC5899049 (ACS infectious diseases, 2017).
≈ marks a conversion by molar mass, not a printed value. Read-outs that look alike come from different tables or passages of the source.

Assays:
[1] = tested on: E. coli, strain BL21(DE3); assay: E. coli growth inhibition assay; assay type: cell-based, Escherichia coli; conditions: for % E. coli growth inhibition (18 h): NI = no inhibition
[2] = tested on: P. falciparum, Dd2 strain (MRA-150); conditions: read-out: P. falciparum growth inhibition IC50; Dd2 (MRA-150) strain; data reported previously; cited from earlier work
[3] = molecular target: Recombinant P. falciparum IspD (Plasmodium falciparum, UniProt Q8I273); assay: Pf IspD enzymatic assay; assay type: biochemical; conditions: for IC50: read-out: PfIspD IC50, measured at 60 nM Pf IspD; for PfIspD % inhibition at 1 μM (1000 nM): 1 μM (1000 nM) compound, 60 nM Pf IspD, NI = no inhibition
[4] = tested on: MEP pathway intermediates (CDP-ME, MEcPP, IPP) in P. falciparum schizont stage parasites; assay: MEP pathway metabolite profiling by LC-MS/MS; assay type: cell-based, Plasmodium falciparum; conditions: 1 μM 1a or 7a, 10 μM FOS; for Decrease in cellular levels of Pf IspD product CDP-ME: schizont stage; for Reduction of the IPP levels: 4 h treatment
[5] = tested on: MEP pathway metabolites in parasites starting at ring stage; conditions: 5 μM FOS for 10 h starting at ring stage; ref 24 (Zhang et al.); cited from earlier work
[6] = tested on: P. falciparum (Dd2 strain); assay: Cytocidal; assay type: cell-based, Plasmodium falciparum; conditions: LC50 could not be determined
Human IspD (hIspD) = molecular target: T1, Human IspD (hIspD) (Homo sapiens, UniProt A4D126); assay: Human IspD enzymatic assay; assay type: biochemical; conditions: 2 μM hIspD, 37 °C, 16 h
T1 sequence (A4D126 1-451): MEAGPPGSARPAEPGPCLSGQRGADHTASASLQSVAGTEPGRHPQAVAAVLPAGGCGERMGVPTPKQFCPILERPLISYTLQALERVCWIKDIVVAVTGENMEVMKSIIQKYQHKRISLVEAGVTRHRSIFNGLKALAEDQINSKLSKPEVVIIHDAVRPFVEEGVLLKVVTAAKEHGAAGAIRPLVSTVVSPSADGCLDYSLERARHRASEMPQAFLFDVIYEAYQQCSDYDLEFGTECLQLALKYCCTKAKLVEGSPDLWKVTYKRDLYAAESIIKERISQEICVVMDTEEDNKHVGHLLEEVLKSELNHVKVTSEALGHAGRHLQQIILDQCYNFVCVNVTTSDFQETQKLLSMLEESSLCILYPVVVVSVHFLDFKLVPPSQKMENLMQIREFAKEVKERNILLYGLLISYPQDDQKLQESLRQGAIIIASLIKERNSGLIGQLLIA

[7] = tested on: E. coli, strain BL21(DE3); conditions: 500 μM; NI = no inhibition; data reported previously; cited from earlier work
P. falciparum IspD = conditions: read-out: P. falciparum IspD Ki; cited from earlier work
[8] = tested on: Arabidopsis thaliania IspD; conditions: concentrations up to 10 μM; cited from earlier work
[9] = tested on: Mycobacterium tuberculosis IspD; conditions: concentrations up to 10 μM; cited from earlier work
[10] = tested on: Escherichia coli IspD (EcIspD); conditions: concentrations up to 10 μM; cited from earlier work
[11] = tested on: P. falciparum, Dd2 strain (MRA-150); assay: P. falciparum growth inhibition; conditions: Plasmodium falciparum, DD2, 72 h, read-out: IC50 value at 72 h

O=C(O)[C@@H]1Cc2c([nH]c3ccccc23)[C@H](c2ccc(Cl)cc2Cl)N1 [5a]
% E. coli growth inhibition (18 h) ([1]; 125 μM): no effect
IC50 [2]: > 10000 nM

COc1ccc(C2NC(C(=O)O)Cc3c2[nH]c2ccccc32)cc1OC (stereo not shown) [1x]
IC50 [2]: > 20000 nM

CNC(=O)C1Cc2c([nH]c3ccccc23)C(c2ccc(Cl)cc2Br)N1 (stereo not shown) [7k]
IC50 [3]: 31 ± 4 nM

CCNC(=O)C1Cc2c([nH]c3ccccc23)C(c2ccc(Cl)cc2Cl)N1 (stereo not shown) [8a]
IC50 [3]: ~1000 nM

CNC(=O)C1Cc2c([nH]c3ccccc23)C(c2ccc(Br)cc2Cl)N1 (stereo not shown) [7j]
IC50 [3]: 21 ± 6 nM

O=C(O)[C@H]1Cc2c([nH]c3ccccc23)[C@H](c2ccc(Cl)cc2Cl)N1 (single isomer, unassigned; ent-1a) [ent-1a]
% E. coli growth inhibition (18 h) ([1]; 250 μM): no effect
IC50 [2]: > 10000 nM

Clc1ccc(C2NCCc3c2[nH]c2ccccc32)c(Cl)c1 (stereo not shown) [11a]
PfIspD % inhibition at 1 μM (1000 nM) [3]: 7% inh. @ 1000
% E. coli growth inhibition (18 h) ([1]; 250 μM): 45 ± 10 @ 250 μM %

O=CN(O)CCCP(=O)(O)O [FOS, fosmidomycin, reference compound]
inhibition at 10 µM ([3]; read-out: PfIspD % inhibition at 10 μM, 10 μM compound, 60 nM Pf IspD): ~4%
MIC ([1]; Escherichia coli, 18 h, read-out: E. coli minimum inhibitory concentration (MIC)): 11.99 ± 0.02 µM (≈ 2.2 µg/mL)
Decrease in cellular levels of Pf IspD product CDP-ME ([4]; 2 h exposure): did not cause significant reduction
Decrease in cellular levels of Pf IspD product CDP-ME ([4]; 4 h exposure): did not cause significant reduction
Reduction of the IPP levels [4]: > 90%
IC50 [2]: 880 ± 70 nM
Levels of CDP-ME [5]: reduced levels

O=C(O)[C@@H]1Cc2c([nH]c3ccccc23)[C@@H](c2ccc(Cl)cc2Cl)N1 [1a, (1R,3S)-MMV008138]
Parasite growth at 72 h after wash-out ([6]; 6 h incubation): grow similarly to untreated controls
Parasite growth at 72 h after wash-out ([6]; 12 h incubation): grow similarly to untreated controls
Decrease in cellular levels of Pf IspD product CDP-ME ([4]; 2 h exposure): 67 ± 2%
Decrease in cellular levels of Pf IspD product CDP-ME ([4]; 4 h exposure): 84 ± 8%
Reduction of the IPP levels [4]: > 90%
Human IspD CDP-ribitol formation (Human IspD (hIspD); 20 μM 1a): not inhibited
Human IspD CDP-ribitol formation (Human IspD (hIspD); 200 μM 1a): not inhibited
IC50 [2]: 250 ± 70 nM
% E. coli growth inhibition (18 h) [7]: no effect
Ki (P. falciparum IspD): 7 to 13 nM
Inhibition of Arabidopsis thaliania IspD [8]: did not inhibit
Inhibition of Mycobacterium tuberculosis IspD [9]: did not inhibit
Inhibition of Escherichia coli IspD [10]: did not inhibit
IC50 [11]: 350 ± 30 nM

O=C(O)[C@H]1Cc2c([nH]c3ccccc23)[C@@H](c2ccc(Cl)cc2Cl)N1 (single isomer, unassigned; ent-5a) [ent-5a]
PfIspD % inhibition at 1 μM (1000 nM) [3]: 27 ± 5% inh. @ 1 μM
% E. coli growth inhibition (18 h) ([1]; 250 μM): 18 ± 6 @ 250 μM %
IC50 [2]: 3000 ± 200 nM
